Test results taken from publication PMC11192711, “Automated radiosynthesis and preclinical evaluation of two new PSMA-617 derivatives radiolabelled via [^18F]AlF^2+ method” (EJNMMI Radiopharmacy and Chemistry, 2024).

Columns and labels:
[1] = test system: Gli36ΔEGFR tumours-bearing nude mice; assay: PET/CT in vivo biodistribution and tumour uptake in orthotopic Gli36ΔEGFR glioma model; settings: n = 3; for Bone (SUV mean) / Brain (SUV mean) / Colon (SUV mean) / Gall bladder (SUV mean) / Heart (SUV mean) / Kidney (SUV mean) / Liver (SUV mean) / Lung (SUV mean) / Muscle (SUV mean) / Salivary gland (SUV mean) / Small instestine (SUV mean): Gli36ΔEGFR female nude mice, i.v., PET/CT; for tumour-to-contralateral healthy brain ratio (tumour SUV max/contralateral SUV mean): Gli36ΔEGFR orthotopic glioma, nude mice
Protocol: Subsequently, we evaluated the uptake of [^18F]F-PSMA-617-NODA ([^18F]1) and [^18F]F-PSMA-617-RESCA ([^18F]2) in an orthotopic glioma model obtained with Gli36ΔEGFR cells in female nude mice. Gli36ΔEGFR tumours-bearing nude mice (n = 3) were injected i.v. with either [^18F]F-PSMA-617-NODA or [^18F]F-PSMA-617-RESCA (~ 3.8 MBq/mouse, ~ 50 pmol for [^18F]1 and ~ 170 pmol [^18F]2). Radiotracer uptake was assessed after 10, 60 and 120 min post injection by whole-body PET/CT acquisitions. Also in nude female mice, a rapid clearance of [^18F]1 in all organs and the same kinetic observed in NSG male mice (Additional file 1: S71A and B) were confirmed. […] It is interesting to note that the uptake of [^18F]1 in kidneys decreased over time in both models (Additional file 1: S71A and B), while the uptake of [^18F]F-PSMA-1007 in NSG model and [^18F]2 in nude female mice model increased (Additional file 1: S71C and D).
Total body biodistribution of [^18F]F-PSMA-1007, [^18F]F-PSMA-617-NODA and [^18F]F-PSMA-617-RESCA was evaluated in vivo using imaging PET/CT. [^18F]F-PSMA-617-NODA uptake was compared to that of the [^18F]F-PSMA-1007 in a PSMA positive prostate tumour xenograft model (LNCaP). [^18F]F-PSMA-617-NODA and [^18F]F-PSMA-617-RESCA uptake were also evaluated using an orthotopic glioma model (Gli36ΔEGFR).
5 × 10^5 Gli36ΔEGFR cells were injected in the right striatum of seven to eight weeks old female nude mice (Envigo RMS s.r.l., Italy) as previously described (Valtorta et al. [2021]). Ten days after mice underwent a T2-weighted Magnetic Resonance Imaging (MRI) using a 7 T small animal magnetic resonance scanner (Bruker, BioSpec 70/30 USR, Paravision 5.1, Germany) to confirm the growth of the tumour. Then, the same mice underwent in vivo biodistribution of [^18F]F-PSMA-617-NODA and [^18F]F-PSMA-617-RESCA, on successive but non-consecutive days, using PET/CT.
Mice were injected into a tail vein with 3.8 ± 0.1 MBq of [^18F]F-PSMA-1007, 4.0 ± 0.2 MBq of [^18F]F-PSMA-617-NODA ([^18F]1) and 3.8 ± 0.1 MBq of [^18F]F-PSMA-617-RESCA ([^18F]2), respectively.
Total body PET/CT acquisitions were performed using PET/CT tomographs dedicated to small animals, X-ß-CUBE (Molecubes, Gent, Belgium) after 10, 60 and 120 min from tracer injection. Each acquisition lasted 30 min and mice were maintained anesthetized (4% isoflurane in induction and 2% in maintenance in air) during acquisition.
Image quantification analysis was performed with PMOD 4.105 software (Zurich, Switzerland). Volumes of interest (VOIs) were drawn on peripheral organs (tumour, thoracic muscle, heart, liver, kidney, salivary glands, lung, small intestine, colon, bone, gall bladder) and on the healthy brain using CT images. For the glioma model, PET/CT images were co-registered to MRI images and two different VOIs were defined: (1) a control VOI covering the healthy left striatum (volume 4 mm^3) was drawn on the axial MR images, adjusted on the other imaging planes and then copied on the PET images of each mouse; (2) a second glioma-covering VOI was drawn in the tumour-affected brain hemisphere and centered on mice lesions.
For quantification, Standardized Uptake Value (SUV) was calculated according to the formula:
SUV = organ concentration activity [MBq/g]/(injected activity [MBq]/animal weight [g]).
The data were expressed as standardized-uptake-values (SUVmean and SUVmax) and as tumour-to-muscle (T/M) and tumour-to-blood (T/B) ratio in PCa model and as tumour-to-contralateral (T/Cl) ratio in glioma model.

[2] = Stability in final solution (analytical HPLC and radio-TLC); type: physicochemical; settings: up to four hours after end of radiosynthesis, room temperature, HPLC and radio-TLC
Protocol: Chemical and radiochemical stability in the final solution were tested by analytical HPLC and radio-TLC (Additional file 1: S37–S41); samples of the purified product were analyzed up to four hours after the end of radiosynthesis, at time intervals of two hours and storing the vial at room temperature.
Stability in solution of [^18F]F-PSMA-617-NODA ([^18F]1) and [^18F]F-PSMA-617-RESCA ([^18F]2) were evaluated injecting in RP-HPLC (for experimental conditions, see sections “(((S)-5-((S)-2-((1R,4S)-4-((4-(4,7-bis(carboxymethyl)-1,4,7-triazonan-1-yl)butanamido)methyl)cyclohexane-1-carboxamido)-3-(naphthalen-2-yl)propanamido)-1-carboxypentyl)carbamoyl)-L-glutamic acid [^18F] aluminium fluoride ([^18F] 1)” and “(((S)-5-((S)-2-((1R,4S)-4-((2-(4-((((1R,2R)-2-(bis(carboxymethyl)amino)cyclohexyl)(carboxymethyl)amino)methyl)phenyl)acetamido)methyl)cyclohexane-1-carboxamido)-3-(naphthalen-2-yl)propanamido)-1-carboxypentyl)carbamoyl)-L-glutamic acid [18F] aluminium fluoride ([18F] 2)”) samples (20 µl) of respective radiopharmaceutical solutions at t = 0 (EOS), after 2 h and after 4 h. Moreover, ≈ 7.5 kBq of [^18F]1 or [^18F]2 solution were deposited on TLC sheet. The TLC was imaged using Cyclone® Plus Phosphor Scanner and software OptiQuant™.

O=C(O)CCC(NC(=O)NC(CCCCNC(=O)C(Cc1ccc2ccccc2c1)NC(=O)C1CCC(CNC(=O)CCCN2CCN(CC(=O)O)CCN(CC(=O)O)CC2)CC1)C(=O)O)C(=O)O.[18F][Al] [[^18F]F-PSMA-617-NODA, (((S)-5-((S)-2-((1R,4S)-4-((4-(4,7-bis(carboxymethyl)-1,4,7-triazonan-1-yl)butanamido)methyl)cyclohexane-1-carboxamido)-3-(naphthalen-2-yl)propanamido)-1-carboxypentyl)carbamoyl)-L-glutamic acid [^18F] aluminium fluoride]
Bone (SUV mean) ([1]; 10 min p.i.): 0.18 ± 0.09 | Brain (SUV mean) ([1]; 10 min p.i.): 0.06 ± 0.01 | Colon (SUV mean) ([1]; 10 min p.i.): 0.37 ± 0.08 | Gall bladder (SUV mean) ([1]; 10 min p.i.): 0.33 ± 0.11 | Heart (SUV mean) ([1]; 10 min p.i.): 0.26 ± 0.05 | Kidney (SUV mean) ([1]; 10 min p.i.): 13.11 ± 1.60 | Liver (SUV mean) ([1]; 10 min p.i.): 0.22 ± 0.01 | Lung (SUV mean) ([1]; 10 min p.i.): 0.20 ± 0.04 | Muscle (SUV mean) ([1]; 10 min p.i.): 0.14 ± 0.01 | Salivary gland (SUV mean) ([1]; 10 min p.i.): 0.54 ± 0.17 | Small instestine (SUV mean) ([1]; 10 min p.i.): 0.32 ± 0.05 | Bone (SUV mean) ([1]; 60 min p.i.): 0.13 ± 0.08 | Brain (SUV mean) ([1]; 60 min p.i.): 0.03 ± 0.01 | Colon (SUV mean) ([1]; 60 min p.i.): 0.27 ± 0.13 | Gall bladder (SUV mean) ([1]; 60 min p.i.): 0.10 ± 0.03 | Heart (SUV mean) ([1]; 60 min p.i.): 0.10 ± 0.03 | Kidney (SUV mean) ([1]; 60 min p.i.): 13.32 ± 2.23 | Liver (SUV mean) ([1]; 60 min p.i.): 0.11 ± 0.01 | Lung (SUV mean) ([1]; 60 min p.i.): 0.09 ± 0.04 | Muscle (SUV mean) ([1]; 60 min p.i.): 0.07 ± 0.01 | Salivary gland (SUV mean) ([1]; 60 min p.i.): 0.24 ± 0.09 | Small instestine (SUV mean) ([1]; 60 min p.i.): 0.25 ± 0.06 | Bone (SUV mean) ([1]; 120 min p.i.): 0.12 ± 0.09 | Brain (SUV mean) ([1]; 120 min p.i.): 0.02 ± 0.01 | Colon (SUV mean) ([1]; 120 min p.i.): 0.16 ± 0.03 | Gall bladder (SUV mean) ([1]; 120 min p.i.): 0.04 ± 0.01 | Heart (SUV mean) ([1]; 120 min p.i.): 0.04 ± 0.002 | Kidney (SUV mean) ([1]; 120 min p.i.): 9.30 ± 3.60 | Liver (SUV mean) ([1]; 120 min p.i.): 0.05 ± 0.01 | Lung (SUV mean) ([1]; 120 min p.i.): 0.04 ± 0.01 | Muscle (SUV mean) ([1]; 120 min p.i.): 0.03 ± 0.01 | Salivary gland (SUV mean) ([1]; 120 min p.i.): 0.08 ± 0.04 | Small instestine (SUV mean) ([1]; 120 min p.i.): 0.15 ± 0.06 | tumour-to-contralateral healthy brain ratio (tumour SUV max/contralateral SUV mean) ([1]; 60 min p.i.): 7.75 ± 3.06 | tumour-to-contralateral healthy brain ratio (tumour SUV max/contralateral SUV mean) ([1]; 120 min p.i.): 10.92 ± 3.56 | Chemical and radiochemical stability in the final solution ([2]; listed as [^18F]1): stable and no loss of radioactivity due to radiolytic degradation and aluminum fluoride release were detected | Chemical and radiochemical stability in the final solution ([2]; listed as [^18F]PSMA-617-NODA): neither the release of [^18F]AlF^2+ in solution, nor the formation of other degradation by-products was noticed
